The target in test [1] is T1, PKA catalytic domain (Homo sapiens, UniProt P17612).
T1 construct: using the PKA catalytic domain from Upstate Biotechnology (#14-440); purchased Upstate Biotechnology 14-440
The test is described as follows: Measurement of PKA kinase inhibitory activity (IC50), radiometric filter plate assay. Type of test: biochemical. Particulars: 1 nM enzyme, 40 μM ATP, 20 minutes. Here is the method:
Compounds of the invention can be tested for PK inhibitory activity using the PKA catalytic domain from Upstate Biotechnology (#14-440) and the 9 residue PKA specific peptide (GRTGRRNSI), also from Upstate Biotechnology (#12-257), as the substrate. A final concentration of 1 nM enzyme is used in a buffer that includes 20 mM MOPS pH 7.2, 40 μM ATP/γ^33P-ATP and […] substrate. Compounds are added in dimethylsulphoxide (DMSO) solution to a final DMSO concentration of 2.5%. The reaction is allowed to proceed for 20 minutes before addition of excess orthophosphoric acid to quench activity. Unincorporated γ^33P-ATP is then separated from phosphorylated proteins on a Millipore MAPH filter plate. The plates are washed, scintillant is added and the plates are then subjected to counting on a Packard Topcount.
The % inhibition of the PKA activity is calculated and plotted in order to determine the concentration of test compound required to inhibit 50% of the PKA activity (IC50).

In test [2] the target is T2, PKB-PIF fusion protein (Homo sapiens, UniProt P31751).
T2 construct: PIF (fusion partner); made in house
The test is described as follows: Measurement of PKB kinase inhibitory activity (IC50), radiometric filter plate assay. Particulars: 0.6 nM enzyme, 30 μM ATP, AKTide-2T substrate, 20 minutes. Format: biochemical. An excerpt: The inhibition of protein kinase B (PKB) activity by compounds can be determined essentially as described by Andjelkovic et al. (Mol. Cell. Biol. 19, 5061-5072 (1999)) but using a fusion protein described as PKB-PIF and described in full by Yang et al (Nature Structural Biology 9, 940-944 (2002)). The protein is purified and activated with PDK1 as described by Yang et al. The peptide AKTide-2T (H-A-R-K-R-E-R-T-Y-S-F-G-H-H-A-OH) obtained from Calbiochem (#123900) is used as a substrate. A final concentration of 0.6 nM enzyme is used in a buffer that includes 20 mM MOPS pH 7.2, 30 μM ATP/γ^33P-ATP and 25 µM substrate. Compounds are added in DMSO solution to a final DMSO concentration of 2.5%. The reaction is allowed to proceed for 20 minutes before addition of excess orthophosphoric acid to quench activity. The reaction mixture is transferred to a phosphocellulose filter plate where the peptide binds and the unused ATP is washed away. After washing, scintillant is added and the incorporated activity measured by scintillation counting.
The % inhibition of the PKB activity is calculated and plotted in order to determine the concentration of test compound required to inhibit 50% of the PKB activity (IC50).

In test [3] the test system is phosphorylation of Serine-9 residue in Glycogen Synthase Kinase-3beta as surrogate marker of cellular PKB (Akt) activity. The test is described as follows: In vitro MDA-MB-468 human breast adenocarcinoma GSK-3 phosphorylation assay. Type of test: cell-based. Particulars: MDA-MB-468 cells, 2 hours compound incubation, mean IC50, read-out: Cell pGSK3b IC50. The procedure, abridged:
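MDA-MB-468 cells (5000/well) were treated with compound for 2 h at 37° C, then fixed and immunostained for phospho-Ser9 GSK-3β with an Alexa Fluor 488 secondary antibody. Fluorescence was quantified on an Acumen Explorer. IC50 came from a background-corrected 4-parameter logistic fit with minimum set to zero; obvious outliers were excluded from means.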

T2 sequence (P31751 with tags, fused parts or gaps limits assumed): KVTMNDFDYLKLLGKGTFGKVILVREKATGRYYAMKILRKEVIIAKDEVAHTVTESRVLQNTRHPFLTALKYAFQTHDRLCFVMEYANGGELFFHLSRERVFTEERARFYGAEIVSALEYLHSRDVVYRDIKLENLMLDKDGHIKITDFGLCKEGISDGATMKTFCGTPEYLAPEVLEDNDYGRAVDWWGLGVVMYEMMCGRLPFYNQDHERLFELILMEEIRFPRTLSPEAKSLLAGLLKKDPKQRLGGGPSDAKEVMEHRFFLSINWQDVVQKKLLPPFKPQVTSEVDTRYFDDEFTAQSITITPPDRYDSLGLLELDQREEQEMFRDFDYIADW

Turning to `NC1(c2nc3cccc(F)c3[nH]2)CCN(c2ncnc3[nH]ccc23)CC1` [Example 1, 4-(7-Fluoro-1H-benzoimidazol-2-yl)-1-(7H-pyrrolo[2,3-d]pyrimidin-4-yl)-piperidin-4-ylamine], the IC50 in test [1] was less than 1000 nM; in test [2], less than 100 nM.

On to `NC1(c2nc3cc(F)c(F)cc3[nH]2)CCN(c2ncnc3[nH]ccc23)CC1` [Example 2, 4-(5,6-Difluoro-1H-benzoimidazol-2-yl)-1-(7H-pyrrolo[2,3-d]pyrimidin-4-yl)-piperidin-4-ylamine], for which the IC50 is less than 1000 nM in test [1] and less than 100 nM in test [2].

For `NC1(c2nc3ccc(F)c(F)c3[nH]2)CCN(c2ncnc3[nH]ccc23)CC1` [Example 3, 4-(6,7-Difluoro-1H-benzoimidazol-2-yl)-1-(7H-pyrrolo[2,3-d]pyrimidin-4-yl)-piperidin-4-ylamine], the IC50 was less than 1000 nM in test [1] and less than 100 nM in test [2].

Turning to `Cc1cccc2nc(C3(N)CCN(c4ncnc5[nH]ccc45)CC3)[nH]c12` [Example 4, 4-(7-Methyl-1H-benzoimidazol-2-yl)-1-(7H-pyrrolo[2,3-d]pyrimidine-4-yl)-piperidin-4-ylamine], the figures for the IC50 in test [1] and in test [2] were less than 1000 nM and less than 100 nM, respectively.

As for `NC1(c2nc3ccc(F)cc3[nH]2)CCN(c2ncnc3[nH]ccc23)CC1` [Example 6, 4-(6-Fluoro-1H-benzoimidazol-2-yl)-1-(7H-pyrrolo[2,3-d]pyrimidin-4-yl)-piperidin-4-ylamine], the 50% inhibitory concentration (IC50) in test [3] is 560 nM; in test [1] it was less than 1000 nM; in test [2], less than 100 nM.

In the case of `NC1(c2nc3cc(F)cc(F)c3[nH]2)CCN(c2ncnc3[nH]ccc23)CC1` [Example 7, 4-(5,7-Difluoro-1H-benzoimidazol-2-yl)-1-(7H-pyrrolo[2,3-d]pyrimidin-4-yl)-piperidin-4-ylamine], the IC50 is 940 nM in test [3] and less than 100 nM in test [2].

`COc1ccc2[nH]c(C3(N)CCN(c4ncnc5[nH]ccc45)CC3)nc2c1` [Example 8, 4-(5-Methoxy-1H-benzoimidazol-2-yl)-1-(7H-pyrrolo[2,3-d]pyrimidin-4-yl)-piperidin-4-ylamine]: the results for the IC50 in test [1] and in test [2] were less than 1000 nM and less than 100 nM, respectively.

`NC1(c2nc3ccccc3[nH]2)CCN(c2ncnc3[nH]ccc23)CC1` [Example 12, 4-(1H-benzoimidazol-2-yl)-1-(7H-pyrrolo[2,3-d]pyrimidin-4-yl)-piperidin-4-ylamine]: the IC50 was less than 1000 nM in test [1] and less than 100 nM in test [2].

For `Cc1ccc2nc(C3(N)CCN(c4ncnc5[nH]cnc45)CC3)[nH]c2c1` [Example 17, 4-(6-Methyl-1H-benzoimidazol-2-yl)-1-(9H-purin-6-yl)-piperidin-4-ylamine], the IC50 was 320 nM in test [3], less than 1000 nM in test [1] and less than 100 nM in test [2].

As to `NC1(c2nc3ccccc3[nH]2)CCN(c2ncnc3[nH]c(=O)[nH]c23)CC1` [Example 18, 6-[4-amino-4-(1H-benzoimidazol-2-yl)-piperidin-1-yl]-7,9-dihydro-purin-8-one], the results for the IC50 in test [1] and in test [2] were less than 1000 nM and less than 100 nM, respectively.

`NC1(c2nc3ccccc3[nH]2)CCN(c2ccnc3[nH]ccc23)CC1` [Example 19, 4-(1H-benzoimidazol-2-yl)-1-(1H-pyrrolo[2,3-b]pyridin-4-yl)-piperidin-4-ylamine] showed an IC50 in test [2] of less than 100 nM.

`NC1(c2nc3ccc(Cl)cc3[nH]2)CCN(c2ccnc3[nH]ccc23)CC1` [Example 20, 4-(6-chloro-1H-benzoimidazol-2-yl)-1-(1H-pyrrolo[2,3-b]pyridin-4-yl)-piperidin-4-ylamine] returned an IC50 in test [2] of less than 100 nM.

Turning to `CNC1(c2nc3ccccc3[nH]2)CCN(c2ncnc3[nH]ccc23)CC1` [Example 33, [4-(1H-benzoimidazol-2-yl)-1-(7H-pyrrolo[2,3-d]pyrimidin-4-yl)-piperidin-4-yl]-methyl-amine], the half-maximal inhibitory concentration (IC50) in test [2] was less than 1000 nM.

On to `NCC1(c2nc3ccccc3[nH]2)CCN(c2ncnc3[nH]ccc23)CC1` [Example 34, C-[4-(1H-Benzoimidazol-2-yl)-1-(7H-pyrrolo[2,3-d]pyrimidin-4-yl)-piperidin-4-yl]-methylamine], for which the IC50 in test [2] is less than 100 nM.

Turning to `OCC1(c2nc3ccccc3[nH]2)CCN(c2ncnc3[nH]ccc23)CC1` [Example 35, [4-(1H-Benzoimidazol-2-yl)-1-(7H-pyrrolo[2,3-d]pyrimidin-4-yl)-piperidin-4-yl]-methanol], the IC50 in test [1] and in test [2] was less than 1000 nM throughout.

`NCC1(c2nc3ccccc3o2)CCN(c2ncnc3[nH]ccc23)CC1` [Example 36, C-[4-Benzooxazol-2-yl-1-(7H-pyrrolo[2,3-d]pyrimidin-4-yl)-piperidin-4-yl]-methylamine]: in test [2], the IC50 is less than 100 nM.

Take `NC1(c2nc3ccccc3o2)CCN(c2ncnc3[nH]ccc23)CC1` [Example 37, 4-Benzooxazol-2-yl-1-(7H-pyrrolo[2,3-d]pyrimidin-4-yl)-piperidin-4-ylamine]: the IC50 in test [1] was less than 1000 nM; in test [2] it was less than 100 nM.

In the case of `NC1(c2nc3ccccc3o2)CCN(c2ncnc3[nH]c(=O)[nH]c23)CC1` [Example 38, 6-(4-amino-4-benzooxazol-2-yl-piperidin-1-yl)-7,9-dihydro-purin-8-one], the IC50 in test [2] is less than 1000 nM.

Take `NC1(c2ncc(-c3ccccc3)[nH]2)CCN(c2ncnc3[nH]ccc23)CC1` [Example 39, 4-(5-Phenyl-1H-imidazol-2-yl)-1-(7H-pyrrolo[2,3-d]pyrimidin-4-yl)-piperidin-4-ylamine]: the IC50 in test [2] is less than 100 nM.

For `NC1(c2ncc(-c3ccccc3)o2)CCN(c2ncnc3[nH]ccc23)CC1` [Example 40, 4-(5-Phenyl-oxazol-2-yl)-1-(7H-pyrrolo[2,3-d]pyrimidin-4-yl)-piperidin-4-ylamine], the IC50 in test [2] was less than 1000 nM.

For `NC1(c2ncc(-c3ccccc3)[nH]2)CCN(c2ccnc3[nH]ccc23)CC1` [Example 41, 4-(5-phenyl-1H-imidazol-2-yl)-1-(1H-pyrrolo[2,3-b]pyridin-4-yl)-piperidin-4-ylamine], the IC50 in test [2] was less than 100 nM.

(Values after US20100093748A1, “SUBSTITUTED PIPERIDINES HAVING PROTEIN KINASE INHIBITING ACTIVITY” (ASTEX THERAPEUTICS LIMITED, priority 2006, published 2010).)
